{"source": "paper PMC5845353", "about": "“The selective cathepsin K inhibitor MIV-711 attenuates joint pathology in experimental animal models of osteoarthritis” (Journal of Translational Medicine, 2018)", "tested_on": "dogs subjected to partial medial meniscectomy", "assay": "Dog partial medial meniscectomy study, microscopic cartilage degeneration scores", "type": "in vivo", "design": "key to Total Joint CD Score: sum of tibial and femoral degeneration scores (1=minimal…3=moderate)", "from_the_text": "The proximal end of the left tibia and the distal end of the left femur were removed using a hacksaw and collected into 10% neutral buffered formalin. Bones were allowed to fix for 5 days and then the tissues were placed in formic acid decalcifier (5-20%). After decalcification, the surface area at risk for lesion development of the tibia (medial and lateral plateaus) and femur (medial and lateral condyles) was divided into 3 slabs (anterior to posterior) approximately 2-4 mm thick for processing, embedding, sectioning (8 µm) and staining (Toluidine Blue). The lesions are in reasonably consistent locations in all animals, therefore, the same surfaces and area were consistently embedded for all animals. Blocks containing tissue were numbered 1-3 with 1 being the most anterior piece. In all cases, the anterior aspect of the tissue was embedded down in the cassette for sectioning.\nCompartmentalized lesions on medial tibia and medial femur (cartilage degeneration and osteophytes) were scored for each of the 3 (anterior to posterior) sections using the following system:\n1=minimal degeneration, chondrocyte and proteoglycan loss with or without fibrillation involving the superficial zone or extending into the upper 10% of the cartilage thickness or at least 5% but not more than 10% overall total proteoglycan and cell loss in the zone if lesion is focal and deeper in some areas. Deeper and more extensive proteoglycan loss only without any evidence of chondrocyte loss and collagen damage is also given a score of 1 as this is a minor and reversible change\n2=mild degeneration, chondrocyte and proteoglycan loss with fibrillation involving mainly the upper 11-25% of cartilage thickness, fibrillation generally superficial (upper 10%) while chondrocyte and proteoglycan loss extend into approximately 11-25% of the cartilage depth, or 11-25% overall chondrocyte and proteoglycan loss in the zone if lesion is focal and deeper in some areas. Deeper areas of proteoglycan loss only, without chondrocyte loss or collagen disruption (reversible changes) may be present\n3=moderate degeneration, chondrocyte and proteoglycan loss with fibrillation extending well into the midzone and generally affecting 1/2 (50%) of the total cartilage thickness, fibrillation/collagen damage generally extends into upper 25% while chondrocyte and proteoglycan loss extend through 50% thickness, or 26-50% overall chondrocyte and proteoglycan loss in the zone if lesion is focal and deeper in some areas. Deeper areas of proteoglycan loss only, without chondrocyte loss or collagen disruption (reversible changes) may be present\n4=marked degeneration, chondrocyte and proteoglycan loss with fibrillation extending through the mid zone through 3/4 f the depth (51-75% of cartilage thickness) but without complete (to the tidemark) loss of chondrocytes or proteoglycan, fibrillation/collagen damage generally extend through the mid zone (50% thickness) but deep zone collagen remains intact, or 51-75% overall chondrocyte and proteoglycan loss in the zone if lesion is focal and deeper in some areas. Deeper areas of proteoglycan loss only, without chondrocyte loss or collagen disruption (reversible changes) may be present\n5=severe degeneration, chondrocyte and proteoglycan loss to near tidemark (76-100% of depth) with slightly less severe collagen damage or 76-100% overall chondrocyte and proteoglycan loss in the zone.\nEach medial tibial plateau and medial femoral condyle anterior to posterior section was further divided visually with an ocular micrometer into fourths and numbered 1,2,3,4 with 1 being the outside and 4 being the inside quadrant. A mean score for the four levels was calculated. In addition, means of the 3 sections for each quadrant were determined in order to convey lesion severity in various axial to abaxial locations. Overall tibial and femoral values were summed for a total joint cartilage degeneration score.", "key": {"[1]": {"conditions": "individual dogs of MIV-711 group"}, "[2]": {"conditions": "individual dogs of MIV-711 group, score=depth (1-5), mean of 4 quadrants"}}, "note": "Several values for one entry are separate records, joined by “and”; a condition that tells them apart may be missing. Equal values may be shown once.", "data": [{"smiles": "C#C[C@@H]1CN(C(=O)[C@H](CC(C)C)NC(=O)c2ccc(-c3nc(N4CCN(C)CC4)sc3F)cc2)[C@@H]2C(=O)CO[C@H]12", "note": "[MIV-711]", "values": [{"measurement": "Femur Cartilage Degeneration Score Level 1", "setting": "MIV-711 group mean", "result": 0.57}, {"measurement": "Femur Cartilage Degeneration Score Level 2", "setting": "MIV-711 group mean", "result": 0.65}, {"measurement": "Femur Cartilage Degeneration Score Level 3", "setting": "MIV-711 group mean", "result": 0.77}, {"measurement": "Femur Cartilage Degeneration Score Mean", "setting": "MIV-711 group mean", "result": 0.66}, {"measurement": "Femur Cartilage Degeneration Score Zone 1", "setting": "MIV-711 group mean", "result": 1.16}, {"measurement": "Femur Cartilage Degeneration Score Zone 2", "setting": "MIV-711 group mean", "result": 1.09}, {"measurement": "Femur Cartilage Degeneration Score Zone 3", "setting": "MIV-711 group mean", "result": 0.33}, {"measurement": "Femur Cartilage Degeneration Score Zone 4", "setting": "MIV-711 group mean", "result": 0.07}, {"measurement": "Tibia Cartilage Degeneration Score Level 1", "setting": "MIV-711 group mean", "result": 0.60}, {"measurement": "Tibia Cartilage Degeneration Score Level 2", "setting": "MIV-711 group mean", "result": 1.22}, {"measurement": "Tibia Cartilage Degeneration Score Level 3", "setting": "MIV-711 group mean", "result": 0.92}, {"measurement": "Tibia Cartilage Degeneration Score Mean", "setting": "MIV-711 group mean", "result": 0.91}, {"measurement": "Tibia Cartilage Degeneration Score Zone 1", "setting": "MIV-711 group mean", "result": 0.33}, {"measurement": "Tibia Cartilage Degeneration Score Zone 2", "setting": "MIV-711 group mean", "result": 1.76}, {"measurement": "Tibia Cartilage Degeneration Score Zone 3", "setting": "MIV-711 group mean", "result": 1.02}, {"measurement": "Tibia Cartilage Degeneration Score Zone 4", "setting": "MIV-711 group mean", "result": 0.53}, {"measurement": "Total Joint CD Score", "setting": "MIV-711 group mean", "result": 1.57}, {"measurement": "% inhibition, Femur Cartilage Degeneration Score Level 1", "setting": "MIV-711 group vs vehicle", "result": 13, "unit": "%"}, {"measurement": "% inhibition, Femur Cartilage Degeneration Score Level 2", "setting": "MIV-711 group vs vehicle", "result": 0, "unit": "%"}, {"measurement": "% inhibition, Femur Cartilage Degeneration Score Level 3", "setting": "MIV-711 group vs vehicle", "result": 8, "unit": "%"}, {"measurement": "% inhibition, Femur Cartilage Degeneration Score Mean", "setting": "MIV-711 group vs vehicle", "result": 7, "unit": "%"}, {"measurement": "% inhibition, Femur Cartilage Degeneration Score Zone 1", "setting": "MIV-711 group vs vehicle", "result": -6, "unit": "%"}, {"measurement": "% inhibition, Femur Cartilage Degeneration Score Zone 2", "setting": "MIV-711 group vs vehicle", "result": 6, "unit": "%"}, {"measurement": "% inhibition, Femur Cartilage Degeneration Score Zone 3", "setting": "MIV-711 group vs vehicle", "result": 32, "unit": "%"}, {"measurement": "% inhibition, Femur Cartilage Degeneration Score Zone 4", "setting": "MIV-711 group vs vehicle", "result": 40, "unit": "%"}, {"measurement": "% inhibition, Tibia Cartilage Degeneration Score Level 1", "setting": "MIV-711 group vs vehicle", "result": 41, "unit": "%"}, {"measurement": "% inhibition, Tibia Cartilage Degeneration Score Level 2", "setting": "MIV-711 group vs vehicle", "result": 9, "unit": "%"}, {"measurement": "% inhibition, Tibia Cartilage Degeneration Score Level 3", "setting": "MIV-711 group vs vehicle", "result": -38, "unit": "%"}, {"measurement": "% inhibition, Tibia Cartilage Degeneration Score Mean", "setting": "MIV-711 group vs vehicle", "result": 9, "unit": "%"}, {"measurement": "% inhibition, Tibia Cartilage Degeneration Score Zone 1", "setting": "MIV-711 group vs vehicle", "result": 48, "unit": "%"}, {"measurement": "% inhibition, Tibia Cartilage Degeneration Score Zone 2", "setting": "MIV-711 group vs vehicle", "result": 0, "unit": "%"}, {"measurement": "% inhibition, Tibia Cartilage Degeneration Score Zone 3", "setting": "MIV-711 group vs vehicle", "result": 8, "unit": "%"}, {"measurement": "% inhibition, Tibia Cartilage Degeneration Score Zone 4", "setting": "MIV-711 group vs vehicle", "result": -4, "unit": "%"}, {"measurement": "% inhibition, Total Joint CD Score", "setting": "MIV-711 group vs vehicle", "result": 8, "unit": "%"}, {"measurement": "decrease in cartilage degeneration scores in level 1 (anterior) of the tibia", "setting": "dog, 30 µmol/kg vs vehicle, statistically significant", "result": 41, "unit": "%"}, {"measurement": "Femur Cartilage Degeneration Score Zone 1", "setting": "[1]", "result": "1.00 and 0.33 and 2.00 and 1.33 and 0.67"}, {"measurement": "Femur Cartilage Degeneration Score Zone 2", "setting": "[1]", "result": "1.33 and 1.67 and 0.00 and 2.00 and 1.00 and 0.33 and 2.33"}, {"measurement": "Femur Cartilage Degeneration Score Zone 3", "setting": "[1]", "result": "0.33 and 0.00 and 1.33 and 1.67"}, {"measurement": "Femur Cartilage Degeneration Score Zone 4", "setting": "[1]", "result": "0.00 and 0.33"}, {"measurement": "Tibia Cartilage Degeneration Score Zone 1", "setting": "[1]", "result": "0.33 and 0.67 and 0.00 and 1.00"}, {"measurement": "Tibia Cartilage Degeneration Score Zone 2", "setting": "[1]", "result": "1.67 and 1.33 and 2.00 and 2.33"}, {"measurement": "Tibia Cartilage Degeneration Score Zone 3", "setting": "[1]", "result": "1.33 and 1.00 and 1.67 and 0.67 and 0.33"}, {"measurement": "Tibia Cartilage Degeneration Score Zone 4", "setting": "[1]", "result": "0.67 and 0.33 and 0.00 and 1.00"}, {"measurement": "Total Joint CD Score", "setting": "[1]", "result": "1.08 and 1.67 and 1.75 and 0.75 and 2.42 and 1.33 and 1.50 and 1.25 and 2.00 and 1.83 and 3.00"}, {"measurement": "Femur Cartilage Degeneration Score Level 1", "setting": "[2]", "result": "0.50 and 0.25 and 0.75 and 1.00"}, {"measurement": "Femur Cartilage Degeneration Score Level 2", "setting": "[2]", "result": "0.50 and 1.00 and 0.00 and 1.75 and 0.75 and 0.25"}, {"measurement": "Femur Cartilage Degeneration Score Level 3", "setting": "[2]", "result": "0.50 and 1.00 and 0.00 and 1.50 and 0.25 and 1.25 and 0.75 and 2.00"}, {"measurement": "Femur Cartilage Degeneration Score Mean", "setting": "[2]", "result": "0.50 and 0.67 and 0.83 and 0.08 and 1.33 and 0.58 and 0.33 and 0.25 and 1.58"}, {"measurement": "Tibia Cartilage Degeneration Score Level 1", "setting": "[2]", "result": "0.25 and 0.00 and 0.50 and 1.25 and 0.75 and 1.00 and 1.50"}, {"measurement": "Tibia Cartilage Degeneration Score Level 2", "setting": "[2]", "result": "1.00 and 1.25 and 1.75 and 1.50 and 0.50"}, {"measurement": "Tibia Cartilage Degeneration Score Level 3", "setting": "[2]", "result": "0.50 and 1.50 and 1.00 and 1.25 and 0.75 and 0.00"}, {"measurement": "Tibia Cartilage Degeneration Score Mean", "setting": "[2]", "result": "0.58 and 1.00 and 0.92 and 0.67 and 1.08 and 0.75 and 1.17 and 0.42 and 1.42"}]}]}
